# In US20240116946A1 (Gilead Sciences, Inc., priority 2022, published 2024):
# Where two headings read alike, the source gives them in different places.
# Tests used:
# [1] = target: recombinant SARS-CoV-2 Main protease (Mpro) (Severe acute respiratory syndrome coronavirus 2 (2019-nCoV) (SARS-CoV-2), UniProt P0DTD1); test: Cov Mpro Biochemical IC50 Assay
# [2] = system: SARS-CoV-2-NLuc; test: microbe, parasite or virus in culture; type: cell-based, SARS Coronavirus 2
# [3] = recombinant SARS-CoV-2 Mpro 7.5 nM, fluorogenic peptide substrate 40 μM, read-out: MPro IC50
# [4] = Severe acute respiratory syndrome coronavirus, 48 h, read-out: MPro EC50
# [5] = recombinant SARS-CoV-2 Mpro, fluorogenic peptide substrate, read-out: MPro IC50
# [6] = Severe acute respiratory syndrome coronavirus, 48 h; read-out: MPro EC50
compound,measurement,setting,value
Cn1ncc2cncc(-n3c(=O)c4sc(-c5ccccc5Cl)cc4n(CCC#N)c3=O)c21 [Example 781],IC50,[1]; [3],5.06 nM
same,EC50,[2]; [4],4.81 nM
O=c1[nH]c2cc(-c3cc(O)ccc3Cl)ccc2c(=O)n1-c1cncc2ccccc12 [Example 296],IC50,[1]; [5],384 nM
same,EC50,[2]; [4],1430 nM
O=c1[nH]c2cc(-c3c(Cl)cccc3-c3ccc4c(c3)OC(F)(F)O4)ccc2c(=O)n1-c1cncc2ccccc12 [Example 357],IC50,[1]; [5],373 nM
same,EC50,[2]; [4],68.1 nM
Cn1cc(-c2cccc(Cl)c2-c2ccc3c(=O)n(-c4cncc5ccccc45)c(=O)[nH]c3c2)c(C2CC2)n1 [Example 262],IC50,[1]; [5],6.12 nM
same,EC50,[2]; [4],< 4.41 nM
"O=c1[nH]c2cc(-c3ccccc3Cl)sc2c(=O)n1-c1cncc(C(F)(F)F)c1 [Example 576, 6-(2-chlorophenyl)-3-(5-(trifluoromethyl)pyridin-3-yl)thieno[3,2-d]pyrimidine-2,4(1H,3H)-dione]",IC50,[1]; [3],174 nM
same,EC50,[2]; [6],153 nM
COc1cnc(Cl)c(-c2cc3[nH]c(=O)n(-c4cncc5cnn(C)c45)c(=O)c3s2)c1 [Example 668],IC50,[1]; [3],23 nM
same,EC50,[2]; [4],123 nM
"COc1cc(-c2cc3[nH]c(=O)n(-c4cncc5cnn(C)c45)c(=O)c3s2)c(Cl)cc1F (single isomer, unassigned) [Example 639, 6-(2-chloro-4-fluoro-5-methoxy-phenyl)-3-(1-methylpyrazolo[4,3-c]pyridin-7-yl)-1H-thieno[3,2-d]pyrimidine-2,4-dione]",IC50,[1]; [3],114 nM
same,EC50,[2]; read-out: MPro EC50,173 nM
"COc1cc(-c2cc3[nH]c(=O)n(-c4cncc5ccccc45)c(=O)c3s2)c(Cl)cc1F [Example 340, 6-(2-chloro-4-fluoro-5-methoxy-phenyl)-3-(4-isoquinolyl)-1H-thieno[3,2-d]pyrimidine-2,4-dione]",IC50,[1]; [5],5.23 nM
same,EC50,[2]; [4],5.39 nM
COc1cc(-c2cc3c(s2)c(=O)n(-c2cncc4nccn24)c(=O)n3CCC#N)c(Cl)cc1F [Example 1000],IC50,[1]; [3],10.6 nM
same,EC50,[2]; [4],20.1 nM
COc1cc(-c2cc3c(s2)c(=O)n(-c2cncc4nnn(C)c24)c(=O)n3CCC#N)c(C#N)cc1F [Example 878],IC50,[1]; [3],15.8 nM
same,EC50,[2]; [4],90 nM
COc1cc2c(=O)n(-c3cncc4ccccc34)c(=O)[nH]c2cc1-c1ccccc1Cl [Example 83],IC50,[1]; [5],109 nM
same,EC50,[2]; [4],122 nM
Cn1ncc2c(-c3cc4[nH]c(=O)n(-c5cncc6cnn(C)c56)c(=O)c4s3)c(Cl)ccc21 [Example 670],IC50,[1]; [3],146 nM
same,EC50,[2]; [4],585 nM
COC(=O)Cn1c(=O)n(-c2cncc3ccccc23)c(=O)c2sc(-c3ccccc3Cl)cc21 [Example 220],IC50,[1]; [5],29.1 nM
same,EC50,[2]; [4],86.6 nM
"COc1cc(-c2cc3[nH]c(=O)n(-c4cncc5ccccc45)c(=O)c3cc2OC)c(C#N)cc1F [Example 324, 5-fluoro-2-[3-(4-isoquinolyl)-6-methoxy-2,4-dioxo-1H-quinazolin-7-yl]-4-methoxy-benzonitrile]",IC50,[1]; [5],7.02 nM
same,EC50,[2]; [6],18.1 nM
COc1cc(-c2cc3c(s2)c(=O)n(-c2cncc(C)c2C)c(=O)n3CCC#N)c(Cl)cc1F [Example 932],IC50,[1]; [3],5.33 nM
same,EC50,[2]; [4],2.42 nM
N#CCn1c(=O)n(-c2cncc3ccccc23)c(=O)c2sc(-c3cc(F)ccc3Cl)cc21 [Example 728],IC50,[1]; [3],2.7 nM
same,EC50,[2]; [4],4.34 nM
"O=c1[nH]c2cc(-c3ccccc3Cl)sc2c(=O)n1-c1cncc2ccc(F)cc12 [Example 622, 6-(2-chlorophenyl)-3-(6-fluoroisoquinolin-4-yl)thieno[3,2-d]pyrimidine-2,4(1H,3H)-dione]",IC50,[1]; [3],15.4 nM
same,EC50,[2]; [6],39.3 nM
O=c1[nH]c2cc(-c3c(Cl)cccc3-c3ccc4ncnn4c3)ccc2c(=O)n1-c1cncc2ccccc12 [Example 241],IC50,[1]; [5],35 nM
same,EC50,[2]; [4],54 nM
"COc1ccc(Cl)c(-c2cc3[nH]c(=O)n(-c4cncc5sc(C(N)=O)c(C)c45)c(=O)c3s2)c1 [Example 1048, 4-(6-(2-chloro-5-methoxyphenyl)-2,4-dioxo-1,4-dihydrothieno[3,2-d]pyrimidin-3(2H)-yl)-3-methylthieno[2,3-c]pyridine-2-carboxamide]",IC50,[1]; [3],5.23 nM
same,EC50,[2]; [6],9.86 nM
Cn1ncc2cncc(-n3c(=O)c4sc(-c5cc(F)ccc5C#N)cc4n(CCC#N)c3=O)c21 [Example 778],IC50,[1]; [3],19 nM
same,EC50,[2]; [4],179 nM
COc1ccc(Cl)c(-c2ccc3c(=O)n(-c4cncc5c(Cl)cccc45)c(=O)[nH]c3c2)c1 [Example 593],IC50,[1]; [3],38400 nM
same,EC50,[2]; [4],5790 nM
COc1ccc(Cl)c(-c2cc3[nH]c(=O)n(-c4cncc5ccc(N6CCN(S(C)(=O)=O)CC6)cc45)c(=O)c3s2)c1 [Example 425],IC50,[1]; [3],7.69 nM
same,EC50,[2]; [6],30 nM
Cc1nn(C)cc1-c1cccc(Cl)c1-c1cc2[nH]c(=O)n(-c3cncc(C4CC4)c3)c(=O)c2s1 [Example 617],IC50,[1]; [3],7.26 nM
same,EC50,[2]; [4],19.5 nM
O=c1[nH]c2cc(-c3ccccc3Cl)sc2c(=O)n1-c1cnccc1C1CCOCC1 [Example 138],IC50,[1]; [5],16.2 nM
same,EC50,[2]; [4],144 nM
CN1CCOc2cc(-c3cccc(Cl)c3-c3ccc4c(=O)n(-c5cncc6ccccc56)c(=O)[nH]c4c3)ccc21 [Example 314],IC50,[1]; [5],456 nM
same,EC50,[2]; [4],72.9 nM
"COc1cnc(Cl)c(-c2cc3[nH]c(=O)n(-c4cncc5ccccc45)c(=O)c3s2)c1 (single isomer, unassigned) [Example 628, 6-(2-chloro-5-methoxypyridin-3-yl)-3-(isoquinolin-4-yl)thieno[3,2-d]pyrimidine-2,4(1H,3H)-dione]",IC50,[1]; [3],3.26 nM
same,EC50,[2]; read-out: MPro EC50,15.9 nM
Cc1cc(-n2c(=O)c3sc(-c4ccccc4Cl)cc3n(CCC#N)c2=O)cnc1F [Example 825],IC50,[1]; [3],33.9 nM
same,EC50,[2]; [4],77 nM
"COc1ccc(Cl)c(-c2cc3[nH]c(=O)n(-c4cncc5ccc(F)cc45)c(=O)c3s2)c1 [Example 623, 6-(2-chloro-5-methoxy-phenyl)-3-(6-fluoro-4-isoquinolyl)-1H-thieno[3,2-d]pyrimidine-2,4-dione]",IC50,[1]; [3],11.5 nM
same,EC50,[2]; [6],30 nM
Cn1ncc2cncc(-n3c(=O)c4sc(-c5cc(F)ccc5Cl)cc4n(CCC#N)c3=O)c21 [Example 789],IC50,[1]; [3],5.82 nM
same,EC50,[2]; [4],4.8 nM
COc1ccc(C#N)c(-c2cc3[nH]c(=O)n(-c4cncc5ccc(N6CCC(F)(F)C6)cc45)c(=O)c3s2)c1 [Example 418],IC50,[1]; [3],21.4 nM
same,EC50,[2]; [4],126 nM
N#Cc1cncc(-c2cccc(Cl)c2-c2ccc3c(=O)n(-c4cncc5ccccc45)c(=O)[nH]c3c2)c1 [Example 298],IC50,[1]; [5],6.29 nM
same,EC50,[2]; [4],10.8 nM
O=c1[nH]c2cc(-c3c(Cl)cc(Cl)c4c3CCO4)sc2c(=O)n1-c1cncc2ccccc12 [Example 647],IC50,[1]; [3],10.9 nM
same,EC50,[2]; [4],25.9 nM
COc1cc(-c2cc3c(s2)c(=O)n(-c2cnccc2C(F)(F)F)c(=O)n3CCC#N)c(C#N)cc1F [Example 862],IC50,[1]; [3],95.3 nM
same,EC50,[2]; [4],210 nM
Cc1cc(-c2cccc(Cl)c2-c2ccc3c(=O)n(-c4cncc5ccccc45)c(=O)[nH]c3c2)ccn1 [Example 331],IC50,[1]; [5],10.4 nM
same,EC50,[2]; [4],17 nM
Cc1cc(C#N)c(-c2cc3c(s2)c(=O)n(-c2cncc4cnn(C)c24)c(=O)n3CCC#N)cc1F [Example 786],IC50,[1]; [3],27.9 nM
same,EC50,[2]; [4],165 nM
"COc1ccc(Cl)c(-c2cc3[nH]c(=O)n(-c4cncc5cc(F)ccc45)c(=O)c3s2)c1 [Example 580, 6-(2-chloro-5-methoxyphenyl)-3-(7-fluoroisoquinolin-4-yl)thieno[3,2-d]pyrimidine-2,4(1H,3H)-dione]",IC50,[1]; [3],7.53 nM
same,EC50,[2]; [4],70.9 nM
COc1cc(-c2cc3[nH]c(=O)n(-c4cnccc4C)c(=O)c3s2)c(Cl)cc1F [Example 713],IC50,"[1]; MPro IC50, recombinant SARS-CoV-2 Mpro 7.5 nM, fluorogenic peptide substrate 40 μM",9.18 nM
same,EC50,[2]; [6],15 nM
"COc1cc(-c2cc3c(s2)c(=O)n(-c2cncc4cnn(C)c24)c(=O)n3CCC#N)c(Cl)cc1F (single isomer, unassigned) [Example 644, 3-[6-(2-chloro-4-fluoro-5-methoxy-phenyl)-3-(1-methylpyrazolo[4,3-c]pyridin-7-yl)-2,4-dioxo-thieno[3,2-d]pyrimidin-1-yl]propanenitrile]",IC50,[1]; [3],3.1 nM
same,EC50,[2]; read-out: MPro EC50,1.55 nM
O=c1[nH]c2cc(-c3c(Cl)cccc3OCc3cccnn3)ccc2c(=O)n1-c1cncc2ccccc12 [Example 302],IC50,[1]; [5],30.3 nM
same,EC50,[2]; [4],108 nM
Cn1cc(-c2cccc(Cl)c2-c2ccc3c(=O)n(-c4cncc5ccccc45)c(=O)[nH]c3c2)c(C#N)n1 [Example 267],IC50,[1]; [5],24.1 nM
same,EC50,[2]; [4],35.5 nM
"COc1ccc(Cl)c(-c2ccc3c(=O)n(-c4cncc5ccccc45)c(=O)[nH]c3c2)c1 (single isomer, unassigned) [Example 476, 7-(2-chloro-5-methoxy-phenyl)-3-(4-isoquinolyl)-1H-quinazoline-2,4-dione]",IC50,[1]; [3],258 nM
same,EC50,[2]; read-out: MPro EC50,259 nM
"COc1cnc(Cl)c(-c2cc3c(s2)c(=O)n(-c2cncc4cnn(C)c24)c(=O)n3CCC#N)c1 (single isomer, unassigned) [Example 1091, 3-(6-(2-chloro-5-methoxypyridin-3-yl)-3-(1-methyl-1H-pyrazolo[4,3-c]pyridin-7-yl)-2,4-dioxo-3,4-dihydrothieno[3,2-d]pyrimidin-1(2H)-yl)propanenitrile]",IC50,[1]; [3],141 nM
same,EC50,[2]; read-out: MPro EC50,451 nM
N#Cc1ccccc1-c1cc(F)c2c(=O)n(-c3cncc4ccccc34)c(=O)[nH]c2c1 [Example 223],IC50,[1]; [5],101 nM
same,EC50,[2]; [6],414 nM
O=c1[nH]c2cc(-c3ccccc3Cl)sc2c(=O)n1-c1cncc2ccc(N3CC(F)(F)C3)cc12 [Example 420],IC50,[1]; [3],10.8 nM
same,EC50,[2]; [4],50.9 nM
